Common to all, as to format: in vivo
In test [1] the test system is Dermatophagoides pteronyssinus. Briefly: Simulated use test, infested cushion covered with sprayed sheet. The settings on record: menthone 10^−6 L/L, 6 sprays on sheet, 1 h, cushion infested with three mite species, N = 3. Here is the method:
(§1) A composition comprising menthone at a concentration of 10^−6 L/L was prepared by diluting 1 μL liquid menthone as described hereinabove (mixture of stereoisomers L-menthone and D-isomenthone, with 98% purity, from Alfa Aesar, Haverhill, USA) in 1 L of water. Hereafter, said composition is referred to as “compositions comprising menthone alone” or “compositions comprising menthone”.
(§2) A composition comprising peppermint oil at a concentration of 10^−5 L/L was prepared by diluting 10 μL peppermint oil (natural peppermint oil from Mentha piperita L., Sigma, St Louis, USA) as described hereinabove in 1 L of water. Hereafter, said composition is referred to as “composition comprising menthone within peppermint oil” or “composition comprising peppermint oil”.
(§3) In order to simulate real-life utilization of the composition for attracting pests of the invention, a common household furniture such as a cushion was infested with living mites and treated with a composition comprising menthone at a concentration of 10^−6 L/L (corresponding to a concentration of menthone of about 9×10^−4 mg/mL) or with a composition comprising peppermint oil at a concentration of 10^−5 L/L (corresponding to a concentration of peppermint oil of about 9×10^−3 mg/mL). As described in Japanese application JP2000336007 and in U.S. Pat. No. 6,415,545, the treatment consisted in laying a sheet on the infested household furniture and spraying the compositions to be tested over it. The number of attracted and unattracted mites was then counted to evaluate the efficacy of the tested composition. All the tests were run at 20-25° C. and 30-35% relative humidity, conditions normally found in households.
(§4) Brand new cushions (43×30×6 cm, Tom&Co) were infested with 400 Tyrophagus putrescentiae, 100 Dermatophagoides farinae and 100 Dermatophagoides pteronyssinus. The proportion of each species respected the average composition of natural mite populations that can be found in a pet basket: ⅔ of storage mites, ⅓ of house dust mites. Small pieces of dry dog food were spread over the cushions as a nourishment for mites. After the infestation, mites were allowed to settle down for 15 hours.
(§5) After 15 hours, a dark sheet was placed over the cushion to be treated. The size of the sheet was sufficient to cover the entire upper surface of the cushion (43×30 cm). The sheet was sprayed 6 times (total volume sprayed about 4 ml) with a composition comprising menthone, either alone (i.e., isolated) or within peppermint oil, or with water (control), keeping the bottle at a distance of about 30 cm from the sheet to be sprayed. A dry control was also used, corresponding to an untreated sheet, i.e., a sheet that was not sprayed. Sprays were evenly distributed in order to cover the totality of the sheet. The sheet was left in place for 1 h. 3 replicates were run with the composition comprising menthone, either alone (i.e., isolated) or within peppermint oil, and 3 replicates were run with the control.
(§6) In order to determine the number of mites within an infested place, the usual method is to vacuum the infested place (Wassenaar 1988). Each sheet was vacuumed for 2 minutes using a special filter (as described in the European patent application EP0630478) that retains the collected dust. The dust sample was then analyzed (see Step 4) in order to determine the number of mites attracted by the composition comprising menthone, either alone (i.e., isolated) or within peppermint oil. Similarly, after removal of the sheet, each cushion was vacuumed to determine the number of remaining mites (i.e., the number of mites that were not attracted by the composition comprising menthone, either alone (i.e., isolated) or within peppermint oil). The relative proportion of mites into the sheet and into the cushion determined the efficacy of the treatment (see Step 4). […]

The test system of test [2] is Tyrophagus putrescentiae. The description is as above. The note with it: menthone 10^−6 L/L, 6 sprays on sheet, 1 h, cushion infested with three mite species, N = 3. Here is the method:
as §1, §2, §3, §4, §5, §6

In test [3] the test system is Dermatophagoides farinae. The description is as above. The settings on record: menthone 10^−6 L/L, 6 sprays on sheet, 1 h, cushion infested with three mite species, N = 3. Here is the method:
as §1, §2, §3, §4, §5, §6

Another test deals with Total number of mites. The description is as above. Here is the method:
as §1, §2, §3, §4, §5, §6

The test system of test [4] is Tyrophagus putrescentiae. Briefly: Two-choice bioassay (filter paper rectangles), attraction of mites. Here is the method:
(§7) A composition comprising menthone was prepared by diluting liquid menthone with a density of 0.894 (mixture of stereoisomers L-menthone and D-isomenthone, with 98% purity, from Alfa Aesar, Haverhill, USA) in water to obtain a concentration of 0.1 μl/mL (i.e., 10^−4 L/L), corresponding to a concentration of about 0.0894 mg/mL or a concentration of about 0.00894% (w/v). Said composition has a molar concentration of menthone of about 0.58 mM.
(§8) Compositions comprising menthone at different concentrations were prepared by serial dilutions in water of the composition comprising menthone at 10^−4 L/L (from 10^−4 L/L to 10^−8 L/L, i.e., from about 0.0894 mg/mL to about 8.94 ng/mL) and their capacity to attract acarids was tested.
(§9) A composition comprising peppermint oil (also known as essential oil of Mentha piperita), which itself comprises menthone, was prepared by diluting peppermint oil with a density of 0.898 g/mL (natural peppermint oil from Mentha piperita L., Sigma, St Louis, USA) in water to obtain a concentration of 0.1 μl/mL (i.e., 10^−4 L/L), corresponding to a concentration of about 0.0898 mg/mL or a concentration of about 0.00898% (w/v). Compositions comprising peppermint oil at different concentrations were prepared by serial dilutions in water of the composition comprising peppermint oil at 10^−4 L/L (from 10^−4 L/L to 10^−6 L/L, i.e., from about 0.0898 mg/mL to about 0.898 μg/mL) and their capacity to attract acarids was tested.
The experimental protocol was inspired by the quantitative choice bioassay run by Synder et al., in 1993. Said bioassay consisted of two rectangles of filter paper of equal dimensions, positioned so as to be parallel to each other and less than 2 cm apart in a petri dish with a 6 cm diameter. 10 μL microliters of the composition comprising menthone, either alone (i.e., isolated) or within peppermint oil, were loaded on one rectangle and 10 μL of solvent (i.e., water) were loaded on the other as a control. After the solvent evaporated, a small strip of filter paper was used to bridge the rectangles. A group of 30-40 mites was then transferred to the middle of the bridge and their movements were observed. The rectangle for which they exited the bridge was recorded. Each assay comprised two sets of rectangles of filter paper connected with a bridge, with the composition comprising menthone, either alone (i.e., isolated) or within peppermint oil, loaded on opposing rectangles in each set (e.g., rectangle on the left in the first set, and rectangle on the right in the second set). Data were submitted to Fisher analysis.
(§10) Statistical significance was assessed using a Fisher's exact test.

The subject of test [5] is Dermatophagoides pteronyssinus. Nature of the test: Two-choice bioassay (vegetable fiber support discs), attraction of mites. As for the experimental part: as §7, §8, §9
(§11) Responses of Dermatophagoides spp. to compositions comprising menthone, either alone (i.e., isolated) or within peppermint oil, were tested in a two-choice bioassay as described in Otieno et al., 1985. Said bioassay comprised two support discs made of vegetable fiber (with a diameter of 1.7 cm), i.e., a test support and a control support, placed in a Petri dish (with a diameter of 6 cm) kept at 20-28° C. in the dark at 30% humidity. Compositions comprising menthone, either alone (i.e., isolated) or within peppermint oil, (50 μL or less) were applied via a syringe to the test support. The control support was loaded with water only. An appropriate number of mites were placed in the center of the dish, equidistant from the test support and the control support. The bioassay system was then left for 24 hr or less at 20-28° C. in the dark at 30% humidity before a count of the mites assembled on the test support and on the control support was made. Several replicates were run for each test.
as §10

Test [6] has as its system Dermatophagoides farinae. The description is as above. Here is the method:
as §7, §8, §9, §11, §10

Where [7] appears, read: composition comprising menthone 10^−4 L/L in water vs water.
Where [8] appears, read: composition comprising menthone 10^−5 L/L in water vs water.
Where [9] appears, read: composition comprising menthone 10^−6 L/L in water vs water.
The mark [10] stands for this setting: composition comprising menthone 10^−7 L/L in water vs water.
Where [11] appears, read: composition comprising menthone 10^−8 L/L in water vs water.

Consider `CC1CCC(C(C)C)C(=O)C1` (stereo not shown) [menthone], for which the “Efficacy (mites attracted out of the cushion)” value in test [1] was 44%; in test [1] (listed as Menthone), 44%; in the test with Tyrophagus putrescentiae [2] it was 69%; with Tyrophagus putrescentiae [2] (listed as Menthone), 69% (±8%); in the test on Dermatophagoides farinae [3] it was 47%; with Dermatophagoides farinae [3] (listed as Menthone), 47% (±6%). The “Efficacy (mites attracted out of the cushion)” value in the test with Total number of mites (menthone 10^−6 L/L, 6 sprays on sheet, 1 h, cushion infested with three mite species, N = 3) was 54% (±5%). Besides, the “more mites attracted out of the infested cushion compared to the control” value in the test on Total number of mites (menthone 10^−6 L/L vs water control, Fisher's exact test, p-value=0.0006) is on record as 21%. Besides, the Mean efficiency is given as 50% in the test with Tyrophagus putrescentiae [4] (setting [7]); 47% with Tyrophagus putrescentiae [4] (setting [8]); 57% in the test with Tyrophagus putrescentiae [4] (setting [9]); 53% in the test with Tyrophagus putrescentiae [4] (setting [10]); 49% in the test on Tyrophagus putrescentiae [4] (setting [11]); 42% in test [5] (setting [7]). For the same compound, the Mean efficiency is given as 50% in test [5] (setting [8]); 67% in test [5] (setting [9]); 42% in test [5] (setting [10]); 41% in the test on Dermatophagoides farinae [6] (setting [7]); 40% with Dermatophagoides farinae [6] (setting [8]); 62% with Dermatophagoides farinae [6] (setting [9]). Further, the Mean efficiency in the test on Dermatophagoides farinae [6] (setting [10]) amounted to 49%; with Dermatophagoides farinae [6] (setting [11]), 51%.

These data come from patent US20210161130A1, “COMPOSITIONS FOR ATTRACTING PESTS AND USES THEREOF” (DOMOBIOS, priority 2018, published 2021).
